The subject of test [1] is HCT116. The test can be described thus: AC50 cell viability (CellTiter-Glo); higher = less potent. Conditions: 48 h. Background: ATP-based viability assays read luminescence as a measure of living cells.
The test system of test [2] is HCT116. As to the kind of experiment: efficacy (fitted maximal change in viability relative to DMSO control); higher = less cytotoxic (negative = loss of viability). As to conditions: 48 h.

Where a name gives a salt, the structure may show the parent alone.
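Throughout, for AC50 cell viability (CellTiter-Glo): HCT116 colorectal carcinoma cells screened at five concentrations per compound, luminescent viability scaled between DMSO wells and empty wells on each plate, curves fitted per compound.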
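Throughout, for efficacy (fitted maximal change in viability relative to DMSO control): Luminescence-based viability readout, five doses per compound, normalized against on-plate DMSO and empty-well controls, followed by dose-response curve fitting for every drug.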

As to `C=CCNC1=C2C[C@@H](C)C[C@H](OC)[C@H](O)[C@@H](C)/C=C(\C)[C@H](OC(N)=O)[C@@H](OC)/C=C\C=C(/C)C(=O)NC(=CC1=O)C2=O` [Tanespimycin], the AC50 cell viability with HCT116 [1] was determined as 3.72 µM. Also, the efficacy in the test with HCT116 [2] was -65.7%.

With `Cc1nc(-c2cn3c(n2)-c2ccc(-c4cnn(C(C)(C)C(N)=O)c4)cc2OCC3)n(C(C)C)n1` [Taselisib (GDC-0032)], in the test on HCT116 [1], the AC50 cell viability came out at 5.9 µM. Further, in the test with HCT116 [2], the efficacy was -77.1%.

In turn, `CCCCCNC(=N)N/N=C/c1c[nH]c2ccc(OC)cc12` [Tegaserod maleate] displayed an AC50 cell viability in the test on HCT116 [1] of 7.42 µM. For the same compound, the efficacy in the test with HCT116 [2] is -92.3%.

`CNC(=O)c1cc(COc2nnc(Nc3ccc(Cl)cc3)c3ccoc23)ccn1` [Telatinib]: in the test on HCT116 [1], the AC50 cell viability worked out at 20.9 µM. For the same compound, the efficacy in the test on HCT116 [2] is -70.3%.

`COc1cc([C@@H]2c3cc4c(cc3[C@@H](O[C@@H]3O[C@@H]5CO[C@@H](c6cccs6)O[C@H]5[C@H](O)[C@H]3O)[C@H]3COC(=O)[C@H]23)OCO4)cc(OC)c1O` [Teniposide]: the AC50 cell viability with HCT116 [1] is 4.17 µM. The efficacy in the test on HCT116 [2] was -104%.

Turning to `COc1ccc(C[C@@H](C)[C@@H](C)Cc2ccc(OC)c(OC)c2)cc1OC` [Terameprocol], in the test on HCT116 [1], the AC50 cell viability stood at 1.05 µM. Moreover, the efficacy with HCT116 [2] is -51.5%.

Regarding `COc1cc2c(Nc3ccc(Cl)c(Cl)c3F)ncnc2cc1OC[C@@H]1C[C@@H]2CN(C)C[C@@H]2C1` [Tesevatinib], in the test on HCT116 [1], the AC50 cell viability was 10.5 µM. Besides, in the test with HCT116 [2], the efficacy is -119%.

Take `C/C=C(/C)C(=O)O[C@H]1C(C)=C2[C@H]([C@@H]1OC(=O)CCCCCCC)[C@@](C)(OC(C)=O)C[C@H](OC(=O)CCC)[C@@]1(O)[C@H]2OC(=O)[C@@]1(C)O` [Thapsigargin]: in the test on HCT116 [1], the AC50 cell viability amounted to 0.0525 µM. For the same compound, in the test on HCT116 [2], the efficacy was -93.2%.

The compound `O=C(NCc1ccccc1)c1csc(Nc2ccncn2)n1` [Thiazovivin] showed an AC50 cell viability in the test with HCT116 [1] of 20.9 µM. Besides, in the test on HCT116 [2], the efficacy is -84%.

In turn, `COc1ccc2cc(-c3[nH]c(-c4ccc([S+](C)[O-])cc4)nc3-c3ccncc3)ccc2c1` (stereo not given) [Tie-2 kinase Inhibitor] came in with an AC50 cell viability in the test with HCT116 [1] of 23.5 µM. Further, the efficacy in the test with HCT116 [2] was -89.1%.

As to `Cn1c(CCCCCCC(=O)NO)nc2cc(N(CCCl)CCCl)ccc21` [Tinostamustine], in the test with HCT116 [1], the AC50 cell viability stood at 2.95 µM. Also, the efficacy in the test on HCT116 [2] is -84.7%.

The compound `Clc1ccc(C(Cn2ccnc2)OCc2ccsc2Cl)c(Cl)c1` (stereo not given) [Tioconazole] yielded an AC50 cell viability with HCT116 [1] of 18.6 µM. Further, the efficacy in the test with HCT116 [2] is -84.3%.

Regarding `NC/1=N/C2=C([NH]C=N2)C(=S)N1` [Tioguanine], the AC50 cell viability with HCT116 [1] amounted to 0.742 µM. Moreover, the efficacy in the test with HCT116 [2] is -85.8%.

With `C[N]1C=NC=C1C(N)(C2=CC=C(Cl)C=C2)C3=CC\4=C(C=C3)N(C)C(=O)\C=C4C5=CC(=CC=C5)Cl` (stereo not given) [Tipifarnib,Freebase], the AC50 cell viability in the test with HCT116 [1] was 20.9 µM. The efficacy in the test with HCT116 [2] is -120%.

As for `C[N]1C=NC=C1[C@@](N)(C2=CC=C(Cl)C=C2)C3=CC=C4N(C)C(=O)\C=C(\C5=CC=CC(=C5)Cl)C4=C3` [Tipifarnib], the AC50 cell viability with HCT116 [1] was 9.34 µM. In the test with HCT116 [2], the efficacy is -107%.

Turning to `Nc1n[n+]([O-])c2ccccc2[n+]1[O-]` [Tirapazamine], the AC50 cell viability with HCT116 [1] stood at 13.2 µM. In addition, in the test with HCT116 [2], the efficacy is -30.4%.

`O=C1NC(=O)[C@@H](c2c[nH]c3ccccc23)[C@H]1c1cn2c3c(cccc13)CCC2` [Tivantinib (ARQ 197)] registered an AC50 cell viability in the test on HCT116 [1] of 0.934 µM. For the same compound, in the test on HCT116 [2], the efficacy was -62.9%.

`COc1cc2nccc(Oc3ccc(NC(=O)Nc4cc(C)on4)c(Cl)c3)c2cc1OC` [Tivozanib (AV-951)] showed an AC50 cell viability in the test on HCT116 [1] of 11.8 µM. The efficacy in the test with HCT116 [2] is -80.3%.

On to `Cc1[nH]c(/C=C2\C(=O)Nc3ccc(F)cc32)c(C)c1C(=O)NCCN1CCCC1` [Toceranib], for which the AC50 cell viability in the test with HCT116 [1] stood at 8.11 µM. Besides, the efficacy in the test on HCT116 [2] was -95.7%.

For `CC[C@@]1(O)C(=O)OCc2c1cc1n(c2=O)Cc2cc3c(CN(C)C)c(O)ccc3nc2-1.Cl` [Topotecan hydrochloride], the AC50 cell viability with HCT116 [1] was 0.59 µM. In addition, in the test with HCT116 [2], the efficacy was -93%.

In the case of `CCOC(=O)N1c2ccc(C(F)(F)F)cc2[C@@H](N(Cc2cc(C(F)(F)F)cc(C(F)(F)F)c2)C(=O)OC)C[C@H]1CC` [Torcetrapib], the AC50 cell viability with HCT116 [1] came to 8.33 µM. Besides, the efficacy in the test with HCT116 [2] was -45.4%.

Turning to `CN(C)CCOc1ccc(/C(=C(/CCCl)c2ccccc2)c2ccccc2)cc1` [Toremifene citrate], in the test on HCT116 [1], the AC50 cell viability amounted to 20.9 µM. Also, the efficacy in the test with HCT116 [2] is -99.7%.

In the case of `CCC(=O)N1CCN(CC1)C2=C(C=C(C=C2)N3C(=O)\C=C/C4=C3C5=CC(=CC=C5N=C4)C6=CN=C7C=CC=CC7=C6)C(F)(F)F` [Torin-1], in the test with HCT116 [1], the AC50 cell viability was determined as 0.0723 µM. In addition, the efficacy with HCT116 [2] was -60%.

Compound `NC1=NC=C(C=C1)C2=CC=C3N=CC\4=C(N(C(=O)\C=C4)C5=CC(=CC=C5)C(F)(F)F)C3=C2` [Torin-2] gave an AC50 cell viability in the test with HCT116 [1] of 0.166 µM. For the same compound, the efficacy in the test with HCT116 [2] was -96.6%.

Turning to `CC(C)N1N/C(=C2\C=c3cc(O)ccc3=N2)c2c(N)ncnc21` [Torkinib], the AC50 cell viability in the test on HCT116 [1] is 5.25 µM. In addition, in the test on HCT116 [2], the efficacy was -125%.

`CC(C)C[C@@H](C(=O)N[C@H](C(=O)OC1CCCC1)c1ccccc1)[C@H](O)C(=O)NO` [Tosedostat] returned an AC50 cell viability with HCT116 [1] of 4.17 µM. In the test with HCT116 [2], the efficacy was -95.7%.

`Cc1cc(Nc2cc(N3CCN(C)CC3)nc(Sc3ccc(NC(=O)C4CC4)cc3)n2)[nH]n1` [Tozasertib]: in the test with HCT116 [1], the AC50 cell viability amounted to 7.42 µM. In addition, the efficacy in the test on HCT116 [2] was -95.2%.

In the test on HCT116 [1], `COc1cc2c(cc1O)CCN[C@]21CS[C@@H]2c3c(OC(C)=O)c(C)c4c(c3[C@H](COC1=O)N1[C@@H]2[C@H]2c3c(cc(C)c(OC)c3O)C[C@@H]([C@@H]1O)N2C)OCO4` [Trabectedin] yielded an AC50 cell viability of 0.0121 µM. Besides, in the test with HCT116 [2], the efficacy is -69.8%.

In the test on HCT116 [1], `CN1C(=O)C(=C/2N(C(=O)N(C3CC3)C(=O)C2=C1/NC4=CC=C(I)C=C4F)C5=CC=CC(=C5)NC(C)=O)\C` [Trametinib] had an AC50 cell viability of 0.0468 µM. For the same compound, the efficacy in the test on HCT116 [2] is -62.3%.

Regarding `CC(/C=C/C(=O)NO)=C\[C@@H](C)C(=O)c1ccc(N(C)C)cc1` [Trichostatin A], the AC50 cell viability with HCT116 [1] was 0.332 µM. For the same compound, the efficacy in the test with HCT116 [2] is -82.3%.

In the case of `CN1\N=C(N)/C2=C[N]([C@@H]3O[C@H](CO[P](O)(O)=O)[C@@H](O)[C@H]3O)C4=C2C1=NC=N4` [Triciribine phosphate], the AC50 cell viability in the test on HCT116 [1] came out at 2.95 µM. The efficacy with HCT116 [2] was -90.5%.

Turning to `CN1CCN(CCCN2c3ccccc3Sc3ccc(C(F)(F)F)cc32)CC1` [Trifluoperazine hydrochloride], in the test with HCT116 [1], the AC50 cell viability stood at 26.3 µM. Also, in the test with HCT116 [2], the efficacy is -119%.

As to `OC[C@H]1O[C@H](C[C@@H]1O)N2/C=C(C(=O)NC2=O)/C(F)(F)F` [Trifluridine], the AC50 cell viability with HCT116 [1] amounted to 2.63 µM. Besides, the efficacy in the test on HCT116 [2] is -62.4%.

In the test with HCT116 [1], `C[C@]12CC[C@H]3[C@@H](CC[C@@]45O[C@@H]4\C(=C(/C[C@]35C)C#N)O)[C@@H]1CC[C@@H]2O` [Trilostane] registered an AC50 cell viability of 13.2 µM. In the test on HCT116 [2], the efficacy is -31.9%.

In the case of `COc1cc(NCc2ccc3nc(N)nc(N)c3c2C)cc(OC)c1OC` [Trimetrexate], the AC50 cell viability with HCT116 [1] was determined as 1.05 µM. Besides, the efficacy in the test on HCT116 [2] was -77.8%.

Values taken from the supplement of paper PMC10290057.
